Columns and labels:
Assay in all cases: Off-chip Mobility Shift Assay, kinase inhibition
Format in all cases: biochemical
ITK = molecular target: T1, ITK (Homo sapiens, UniProt Q08881); conditions: at 1 nM; recombinant ITK
T1 construct: purchased Carna Biosciences, Inc

KIT(D816V) = molecular target: T2, KIT(D816V) (Homo sapiens, UniProt P10721, D816V); conditions: at 10 nM; recombinant KIT(D816V)
T2 construct: purchased Carna Biosciences, Inc

MST1 = molecular target: T3, MST1 (Homo sapiens, UniProt Q13043); conditions: at 10 nM; recombinant MST1
T3 construct: purchased Carna Biosciences, Inc

EGFR(L861Q) = molecular target: T4, EGFR(L861Q) (Homo sapiens, UniProt P00533, L861Q); conditions: at 10 nM; recombinant EGFR(L861Q)
T4 construct: purchased Carna Biosciences, Inc

FGFR1 = molecular target: T5, FGFR1 (Homo sapiens, UniProt P11362); conditions: at 10 nM; recombinant FGFR1
T5 construct: purchased Carna Biosciences, Inc

KIT(D816E) = molecular target: T6, KIT(D816E) (Homo sapiens, UniProt P10721, D816E); conditions: at 10 nM; recombinant KIT(D816E)
T6 construct: purchased Carna Biosciences, Inc

KIT(T670I) = molecular target: T7, KIT(T670I) (Homo sapiens, UniProt P10721, T670I); conditions: at 10 nM; recombinant KIT(T670I)
T7 construct: purchased Carna Biosciences, Inc
T7 sequence (P10721 26-976 T670I): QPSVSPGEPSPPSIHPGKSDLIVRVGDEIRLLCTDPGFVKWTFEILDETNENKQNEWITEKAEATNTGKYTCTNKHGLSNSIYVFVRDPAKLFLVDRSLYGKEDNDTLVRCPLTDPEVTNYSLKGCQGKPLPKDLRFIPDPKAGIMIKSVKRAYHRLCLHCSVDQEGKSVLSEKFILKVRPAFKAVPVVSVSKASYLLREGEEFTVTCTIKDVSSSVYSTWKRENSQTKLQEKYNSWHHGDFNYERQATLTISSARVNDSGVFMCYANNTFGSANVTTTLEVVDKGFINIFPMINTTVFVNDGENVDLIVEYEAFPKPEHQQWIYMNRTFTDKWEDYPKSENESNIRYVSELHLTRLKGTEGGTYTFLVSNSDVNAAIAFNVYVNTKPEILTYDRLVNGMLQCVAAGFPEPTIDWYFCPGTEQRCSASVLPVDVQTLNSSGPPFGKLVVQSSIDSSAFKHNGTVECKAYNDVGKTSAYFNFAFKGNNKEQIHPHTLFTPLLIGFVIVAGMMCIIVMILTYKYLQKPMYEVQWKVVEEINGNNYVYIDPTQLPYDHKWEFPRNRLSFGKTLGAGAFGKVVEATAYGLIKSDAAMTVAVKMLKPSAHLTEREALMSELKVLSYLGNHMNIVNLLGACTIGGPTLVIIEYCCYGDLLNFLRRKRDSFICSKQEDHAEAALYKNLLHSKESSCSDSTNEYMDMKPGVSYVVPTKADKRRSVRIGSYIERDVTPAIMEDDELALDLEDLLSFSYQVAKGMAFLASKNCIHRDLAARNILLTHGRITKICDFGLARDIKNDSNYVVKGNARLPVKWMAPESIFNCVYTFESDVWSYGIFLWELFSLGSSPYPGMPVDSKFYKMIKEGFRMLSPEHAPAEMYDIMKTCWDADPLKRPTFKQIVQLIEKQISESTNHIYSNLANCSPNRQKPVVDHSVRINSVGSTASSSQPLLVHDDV

T3 sequence (Q13043 whole entry): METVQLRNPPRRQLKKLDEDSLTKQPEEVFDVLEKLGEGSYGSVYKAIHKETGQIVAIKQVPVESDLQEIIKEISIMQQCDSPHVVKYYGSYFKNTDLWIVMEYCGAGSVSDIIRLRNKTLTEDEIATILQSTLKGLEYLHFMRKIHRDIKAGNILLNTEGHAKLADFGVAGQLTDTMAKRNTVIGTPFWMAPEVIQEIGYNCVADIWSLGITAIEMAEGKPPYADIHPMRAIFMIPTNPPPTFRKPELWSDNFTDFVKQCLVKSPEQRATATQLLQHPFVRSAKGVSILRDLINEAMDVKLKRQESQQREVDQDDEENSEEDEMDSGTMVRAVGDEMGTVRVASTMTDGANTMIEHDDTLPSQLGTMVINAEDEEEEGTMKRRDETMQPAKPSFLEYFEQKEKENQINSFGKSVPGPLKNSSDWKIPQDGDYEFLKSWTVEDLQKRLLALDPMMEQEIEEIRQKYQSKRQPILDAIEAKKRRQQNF
T2 sequence (P10721 26-976 D816V): as the sequence (P10721 26-976 T670I) above, with I645T, D791V counted along it
T6 sequence (P10721 26-976 D816E): as the sequence (P10721 26-976 T670I) above, with I645T, D791E counted along it
T1 sequence (Q08881 whole entry): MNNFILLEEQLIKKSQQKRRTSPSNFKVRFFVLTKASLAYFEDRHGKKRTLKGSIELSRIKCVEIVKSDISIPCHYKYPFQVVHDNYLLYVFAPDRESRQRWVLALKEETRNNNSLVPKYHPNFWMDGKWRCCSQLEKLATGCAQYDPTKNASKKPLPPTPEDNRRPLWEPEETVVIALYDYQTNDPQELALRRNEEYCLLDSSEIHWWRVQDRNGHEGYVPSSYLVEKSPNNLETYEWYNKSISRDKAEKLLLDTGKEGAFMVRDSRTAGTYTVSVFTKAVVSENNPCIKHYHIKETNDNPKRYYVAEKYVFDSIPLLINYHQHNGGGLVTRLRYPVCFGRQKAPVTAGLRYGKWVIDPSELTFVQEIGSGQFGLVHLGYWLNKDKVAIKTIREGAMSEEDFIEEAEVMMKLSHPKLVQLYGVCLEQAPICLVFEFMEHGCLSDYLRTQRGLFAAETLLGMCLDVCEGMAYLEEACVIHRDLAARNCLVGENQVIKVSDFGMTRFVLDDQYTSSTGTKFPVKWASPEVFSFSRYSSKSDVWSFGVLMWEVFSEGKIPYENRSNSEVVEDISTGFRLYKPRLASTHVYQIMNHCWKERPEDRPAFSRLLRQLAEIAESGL
T4 sequence (P00533 25-1210 L861Q): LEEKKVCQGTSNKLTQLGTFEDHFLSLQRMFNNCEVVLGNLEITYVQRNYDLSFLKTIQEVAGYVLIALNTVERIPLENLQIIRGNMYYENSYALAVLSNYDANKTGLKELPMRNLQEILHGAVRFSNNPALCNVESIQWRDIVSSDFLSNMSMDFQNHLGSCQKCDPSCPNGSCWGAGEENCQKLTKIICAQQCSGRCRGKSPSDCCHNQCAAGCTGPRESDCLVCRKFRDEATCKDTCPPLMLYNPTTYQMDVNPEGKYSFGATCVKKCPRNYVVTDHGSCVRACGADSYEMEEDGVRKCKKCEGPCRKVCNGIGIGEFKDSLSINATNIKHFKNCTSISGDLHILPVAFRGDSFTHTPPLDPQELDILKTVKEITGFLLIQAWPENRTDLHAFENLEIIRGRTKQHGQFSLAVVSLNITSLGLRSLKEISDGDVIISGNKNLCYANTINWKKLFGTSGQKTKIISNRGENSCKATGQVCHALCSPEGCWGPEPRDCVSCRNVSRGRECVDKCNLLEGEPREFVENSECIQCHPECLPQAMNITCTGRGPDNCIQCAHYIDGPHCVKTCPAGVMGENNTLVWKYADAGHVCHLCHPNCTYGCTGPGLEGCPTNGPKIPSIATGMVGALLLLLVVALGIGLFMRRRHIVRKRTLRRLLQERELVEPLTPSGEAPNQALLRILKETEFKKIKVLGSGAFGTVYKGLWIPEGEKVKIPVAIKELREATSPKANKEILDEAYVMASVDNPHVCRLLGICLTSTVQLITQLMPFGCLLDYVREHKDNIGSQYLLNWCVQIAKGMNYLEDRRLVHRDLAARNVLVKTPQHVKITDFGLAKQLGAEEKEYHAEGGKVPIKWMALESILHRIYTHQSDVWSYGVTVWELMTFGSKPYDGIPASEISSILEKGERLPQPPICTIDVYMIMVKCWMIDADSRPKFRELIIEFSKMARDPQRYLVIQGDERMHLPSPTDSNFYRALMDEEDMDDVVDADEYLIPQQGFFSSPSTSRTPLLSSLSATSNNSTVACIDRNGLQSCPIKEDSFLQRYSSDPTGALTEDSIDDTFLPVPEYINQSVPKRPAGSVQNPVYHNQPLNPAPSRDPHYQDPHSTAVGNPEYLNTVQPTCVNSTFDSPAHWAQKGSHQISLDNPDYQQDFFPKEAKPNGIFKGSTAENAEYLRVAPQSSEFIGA
T5 sequence (P11362 22-822): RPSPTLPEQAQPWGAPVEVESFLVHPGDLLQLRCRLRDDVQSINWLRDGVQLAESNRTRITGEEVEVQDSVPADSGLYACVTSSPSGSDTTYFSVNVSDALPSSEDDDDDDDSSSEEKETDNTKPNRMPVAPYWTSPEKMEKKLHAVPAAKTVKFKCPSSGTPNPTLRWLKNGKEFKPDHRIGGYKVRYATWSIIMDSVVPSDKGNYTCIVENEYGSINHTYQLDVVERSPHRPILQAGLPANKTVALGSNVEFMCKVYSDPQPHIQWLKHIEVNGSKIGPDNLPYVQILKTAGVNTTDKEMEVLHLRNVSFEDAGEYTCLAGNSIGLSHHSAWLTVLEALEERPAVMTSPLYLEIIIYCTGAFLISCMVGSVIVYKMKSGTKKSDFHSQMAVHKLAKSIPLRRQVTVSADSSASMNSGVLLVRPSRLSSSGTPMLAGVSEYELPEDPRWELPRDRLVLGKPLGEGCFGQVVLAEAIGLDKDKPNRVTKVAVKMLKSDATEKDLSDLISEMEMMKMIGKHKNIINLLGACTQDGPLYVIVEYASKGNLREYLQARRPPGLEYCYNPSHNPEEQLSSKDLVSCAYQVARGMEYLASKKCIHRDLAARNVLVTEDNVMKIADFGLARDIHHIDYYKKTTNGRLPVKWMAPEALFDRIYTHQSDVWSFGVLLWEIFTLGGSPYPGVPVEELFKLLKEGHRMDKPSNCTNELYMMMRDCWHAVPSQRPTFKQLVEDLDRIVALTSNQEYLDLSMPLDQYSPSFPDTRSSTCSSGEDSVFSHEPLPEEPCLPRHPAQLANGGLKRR

inhibition at 0.001 µM (ITK) [%]	inhibition at 0.01 µM (KIT(D816V)) [%]	inhibition at 0.01 µM (MST1) [%]	inhibition at 0.01 µM (EGFR(L861Q)) [%]	inhibition at 0.01 µM (FGFR1) [%]	inhibition at 0.01 µM (KIT(D816E)) [%]	inhibition at 0.01 µM (KIT(T670I)) [%]	Compound
< 50	–	–	–	–	–	–	[2H]c1cc(C)c(NC(=O)c2cnc(Nc3cc(N4CCC(O)CC4)nc(C)n3)s2)c(Cl)c1 [Compound II, N-(2-chloro-4-deuterio-6-methyl-phenyl)-2-[[6-(4-hydroxy-1-piperidyl)-2-methyl-pyrimidin-4-yl]amino]thiazole-5-carboxamide]
–	> 50	< 50	< 50	< 50	< 50	< 50	[2H]c1cc(C)c(NC(=O)c2cnc(Nc3cc(N4CCCCC4)nc(C)n3)s2)c(Cl)c1 [Compound I, N-(2-chloro-4-deuterio-6-methyl-phenyl)-2-[[2-methyl-6-(1-piperidyl)pyrimidin-4-yl]amino]thiazole-5-carboxamide]

— patent US10479786B2, “Protein kinase inhibitors” (Princeton Drug Discovery Inc, priority 2016, dated 2019)
